# From ChEMBL document CHEMBL3232845 (Bioorg Med Chem Lett, 2014)
# What was measured:
# [1] = molecular target: Myotonin-protein kinase (Homo sapiens) (UniProt Q09013); assay: Inhibition of human DMPK assessed as enzyme activity at 1 uM relative to control; set-up: scale not given: the % may be the effect or the level left
# [2] = molecular target: High affinity nerve growth factor receptor (Homo sapiens) (UniProt P04629); assay: Inhibition of human TrkA assessed as enzyme activity at 1 uM relative to control; set-up: scale not given: the % may be the effect or the level left
# [3] = molecular target: Ribosomal protein S6 kinase alpha-1 (Homo sapiens) (UniProt Q15418); assay: Inhibition of human Rsk1 assessed as enzyme activity at 1 uM relative to control; set-up: scale not given: the % may be the effect or the level left
# [4] = molecular target: Casein kinase II subunit alpha' (Homo sapiens) (UniProt P19784); assay: Inhibition of human CK2alpha2 assessed as enzyme activity at 1 uM relative to control; set-up: scale not given: the % may be the effect or the level left
# [5] = molecular target: Platelet-derived growth factor receptor alpha (Homo sapiens) (UniProt P16234); assay: Inhibition of human PDGFRalpha assessed as enzyme activity at 1 uM relative to control; set-up: scale not given: the % may be the effect or the level left
# [6] = molecular target: Protein kinase C zeta type (Homo sapiens) (UniProt Q05513); assay: Inhibition of human PKCzeta assessed as enzyme activity at 1 uM relative to control; set-up: scale not given: the % may be the effect or the level left
# Sequence of Protein kinase C zeta type (Homo sapiens) (Q05513 whole entry): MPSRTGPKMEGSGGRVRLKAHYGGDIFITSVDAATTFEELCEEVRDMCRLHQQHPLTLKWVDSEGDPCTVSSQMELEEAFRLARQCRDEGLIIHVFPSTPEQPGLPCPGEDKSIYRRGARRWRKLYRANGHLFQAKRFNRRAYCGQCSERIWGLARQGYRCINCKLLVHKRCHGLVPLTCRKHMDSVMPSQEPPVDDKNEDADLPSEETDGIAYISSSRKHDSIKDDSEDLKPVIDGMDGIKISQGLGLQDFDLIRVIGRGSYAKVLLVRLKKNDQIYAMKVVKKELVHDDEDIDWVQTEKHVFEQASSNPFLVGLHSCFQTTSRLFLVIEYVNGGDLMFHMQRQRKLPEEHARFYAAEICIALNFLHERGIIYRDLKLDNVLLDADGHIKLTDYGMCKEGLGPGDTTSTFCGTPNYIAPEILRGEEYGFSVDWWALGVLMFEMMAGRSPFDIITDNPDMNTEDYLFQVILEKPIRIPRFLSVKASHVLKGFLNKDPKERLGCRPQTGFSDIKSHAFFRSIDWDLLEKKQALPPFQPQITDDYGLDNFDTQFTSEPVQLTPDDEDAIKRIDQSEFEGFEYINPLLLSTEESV
# [7] = molecular target: 3-phosphoinositide-dependent protein kinase 1 (Homo sapiens) (UniProt O15530); assay: Inhibition of human PDK1 assessed as enzyme activity at 1 uM relative to control; set-up: scale not given: the % may be the effect or the level left
# Sequence of 3-phosphoinositide-dependent protein kinase 1 (Homo sapiens) (O15530 whole entry): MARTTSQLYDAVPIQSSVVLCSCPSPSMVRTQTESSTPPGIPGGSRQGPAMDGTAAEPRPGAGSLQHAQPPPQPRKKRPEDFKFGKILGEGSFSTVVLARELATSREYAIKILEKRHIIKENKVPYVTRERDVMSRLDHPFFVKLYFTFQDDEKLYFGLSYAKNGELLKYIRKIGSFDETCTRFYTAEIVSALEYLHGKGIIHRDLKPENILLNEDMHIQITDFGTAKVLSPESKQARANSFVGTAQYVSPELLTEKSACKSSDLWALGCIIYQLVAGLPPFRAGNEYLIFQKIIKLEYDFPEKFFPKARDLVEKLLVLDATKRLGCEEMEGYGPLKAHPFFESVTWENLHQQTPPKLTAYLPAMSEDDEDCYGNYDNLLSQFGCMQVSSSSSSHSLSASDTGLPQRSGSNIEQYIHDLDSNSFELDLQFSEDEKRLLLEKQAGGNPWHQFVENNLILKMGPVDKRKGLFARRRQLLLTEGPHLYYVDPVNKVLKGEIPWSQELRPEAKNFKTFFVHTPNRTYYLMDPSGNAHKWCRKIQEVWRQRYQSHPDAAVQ
# TAK1/TAB1 (Homo sapiens) = TAK1/TAB1 (Homo sapiens) (UniProt Q15750+O43318); assay: Inhibition of human TAK1-TAB1 assessed as enzyme activity at 1 uM relative to control; assay type: protein-complex assay; set-up: scale not given: the % may be the effect or the level left
# [8] = molecular target: Dual specificity protein kinase CLK3 (Homo sapiens) (UniProt P49761); assay: Inhibition of human CLK3 assessed as enzyme activity at 1 uM relative to control; set-up: scale not given: the % may be the effect or the level left
# [9] = molecular target: Serine/threonine-protein kinase D1 (Homo sapiens) (UniProt Q15139); assay: Inhibition of human PKD1 assessed as enzyme activity at 1 uM relative to control; set-up: scale not given: the % may be the effect or the level left
# [10] = molecular target: PAS domain-containing serine/threonine-protein kinase (Homo sapiens) (UniProt Q96RG2); assay: Inhibition of human PASK assessed as enzyme activity at 1 uM relative to control; set-up: scale not given: the % may be the effect or the level left
# [11] = molecular target: Activated CDC42 kinase 1 (Homo sapiens) (UniProt Q07912); assay: Inhibition of human TNK2 assessed as enzyme activity at 1 uM relative to control; set-up: scale not given: the % may be the effect or the level left
# [12] = molecular target: Tyrosine-protein kinase Mer (Homo sapiens) (UniProt Q12866); assay: Inhibition of human Mer assessed as enzyme activity at 1 uM relative to control; set-up: scale not given: the % may be the effect or the level left
# [13] = molecular target: Serine/threonine-protein kinase B-raf (Homo sapiens) (UniProt P15056); assay: Inhibition of B-Raf (unknown origin) at 1 uM
# [14] = molecular target: Tyrosine-protein kinase Fgr (Homo sapiens) (UniProt P09769); assay: Inhibition of human Fgr assessed as enzyme activity at 1 uM relative to control; set-up: scale not given: the % may be the effect or the level left
# Sequence of Tyrosine-protein kinase Fgr (Homo sapiens) (P09769 2-529 limits assumed): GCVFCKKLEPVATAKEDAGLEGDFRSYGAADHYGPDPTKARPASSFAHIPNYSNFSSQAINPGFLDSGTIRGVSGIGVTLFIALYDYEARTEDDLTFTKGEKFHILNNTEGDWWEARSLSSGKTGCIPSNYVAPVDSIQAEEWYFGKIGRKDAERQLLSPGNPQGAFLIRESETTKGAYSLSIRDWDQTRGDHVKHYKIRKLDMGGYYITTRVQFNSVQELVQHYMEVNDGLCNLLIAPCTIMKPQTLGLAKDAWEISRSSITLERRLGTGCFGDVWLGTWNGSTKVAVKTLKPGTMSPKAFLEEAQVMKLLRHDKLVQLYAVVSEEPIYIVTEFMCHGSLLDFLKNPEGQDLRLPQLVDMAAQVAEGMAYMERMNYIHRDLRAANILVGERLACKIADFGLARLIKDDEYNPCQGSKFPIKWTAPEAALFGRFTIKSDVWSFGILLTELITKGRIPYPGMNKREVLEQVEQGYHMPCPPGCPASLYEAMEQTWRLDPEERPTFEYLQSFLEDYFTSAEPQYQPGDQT
# [15] = molecular target: Serine/threonine-protein kinase NLK (Homo sapiens) (UniProt Q9UBE8); assay: Inhibition of human NLK assessed as enzyme activity at 1 uM relative to control; set-up: scale not given: the % may be the effect or the level left
# [16] = molecular target: CDK9/cyclin T1 (Homo sapiens) (UniProt O60563+P50750); assay: Inhibition of human CDK9/cyclinT1 assessed as enzyme activity at 1 uM relative to control; assay type: protein-complex assay; set-up: scale not given: the % may be the effect or the level left
# [17] = molecular target: RAF proto-oncogene serine/threonine-protein kinase (Homo sapiens) (UniProt P04049); assay: Inhibition of human c-RAF assessed as enzyme activity at 1 uM relative to control; set-up: scale not given: the % may be the effect or the level left
# [18] = molecular target: Ephrin type-A receptor 4 (Homo sapiens) (UniProt P54764); assay: Inhibition of human EphA4 assessed as enzyme activity at 1 uM relative to control; set-up: scale not given: the % may be the effect or the level left
# [19] = molecular target: SRSF protein kinase 1 (Homo sapiens) (UniProt Q96SB4); assay: Inhibition of human SRPK1 assessed as enzyme activity at 1 uM relative to control; set-up: scale not given: the % may be the effect or the level left
# [20] = molecular target: Ephrin type-B receptor 1 (Homo sapiens) (UniProt P54762); assay: Inhibition of human EphB1 assessed as enzyme activity at 1 uM relative to control; set-up: scale not given: the % may be the effect or the level left
# [21] = molecular target: mTOR/FKBP12A/FKBP12B (Homo sapiens) (UniProt P62942+P68106+P42345); assay: Inhibition of human mTOR/FKBP12 assessed as enzyme activity at 1 uM relative to control; assay type: protein-complex assay; set-up: scale not given: the % may be the effect or the level left
# Sequence of mTOR/FKBP12A/FKBP12B (Homo sapiens) (P62942 2-108 limits assumed, other chains not shown): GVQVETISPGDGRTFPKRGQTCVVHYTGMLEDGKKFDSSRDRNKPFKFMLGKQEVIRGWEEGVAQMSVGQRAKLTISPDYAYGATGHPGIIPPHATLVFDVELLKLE
# Sequence of mTOR/FKBP12A/FKBP12B (Homo sapiens) (P68106 whole entry partner, other chains not shown): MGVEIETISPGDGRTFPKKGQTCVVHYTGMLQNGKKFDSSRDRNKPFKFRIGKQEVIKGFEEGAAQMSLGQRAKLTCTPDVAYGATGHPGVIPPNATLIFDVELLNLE
# [22] = molecular target: Angiopoietin-1 receptor (Homo sapiens) (UniProt Q02763); assay: Inhibition of human Tie2 assessed as enzyme activity at 1 uM relative to control; set-up: scale not given: the % may be the effect or the level left
# [23] = molecular target: Ribosomal protein S6 kinase alpha-3 (Homo sapiens) (UniProt P51812); assay: Inhibition of human Rsk2 assessed as enzyme activity at 1 uM relative to control; set-up: scale not given: the % may be the effect or the level left
# [24] = molecular target: Ephrin type-B receptor 3 (Homo sapiens) (UniProt P54753); assay: Inhibition of human EphB3 assessed as enzyme activity at 1 uM relative to control; set-up: scale not given: the % may be the effect or the level left
# [25] = molecular target: ALK tyrosine kinase receptor (Homo sapiens) (UniProt Q9UM73); assay: Inhibition of human ALK assessed as enzyme activity at 1 uM relative to control; set-up: scale not given: the % may be the effect or the level left
# [26] = molecular target: Serine/threonine-protein kinase pim-2 (Homo sapiens) (UniProt Q9P1W9); assay: Inhibition of human Pim-2 assessed as enzyme activity at 1 uM relative to control; set-up: scale not given: the % may be the effect or the level left
# [27] = molecular target: Tyrosine-protein kinase CSK (Homo sapiens) (UniProt P41240); assay: Inhibition of human CSK assessed as enzyme activity at 1 uM relative to control; set-up: scale not given: the % may be the effect or the level left
# Sequence of Tyrosine-protein kinase CSK (Homo sapiens) (P41240 2-450 limits assumed): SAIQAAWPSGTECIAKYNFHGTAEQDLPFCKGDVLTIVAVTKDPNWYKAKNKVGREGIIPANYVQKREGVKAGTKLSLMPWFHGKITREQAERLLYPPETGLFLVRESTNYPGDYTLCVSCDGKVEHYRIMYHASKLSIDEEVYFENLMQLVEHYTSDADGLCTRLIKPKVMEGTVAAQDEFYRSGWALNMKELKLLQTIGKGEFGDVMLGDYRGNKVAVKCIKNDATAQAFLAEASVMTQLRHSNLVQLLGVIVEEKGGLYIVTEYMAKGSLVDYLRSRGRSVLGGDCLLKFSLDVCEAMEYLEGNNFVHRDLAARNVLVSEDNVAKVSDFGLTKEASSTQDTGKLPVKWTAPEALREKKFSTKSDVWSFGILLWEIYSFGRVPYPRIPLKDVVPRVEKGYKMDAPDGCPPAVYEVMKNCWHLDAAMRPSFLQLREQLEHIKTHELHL
# [28] = molecular target: Serine/threonine-protein kinase MARK1 (Homo sapiens) (UniProt Q9P0L2); assay: Inhibition of human MARK1 assessed as enzyme activity at 1 uM relative to control; set-up: scale not given: the % may be the effect or the level left
# Sequence of Serine/threonine-protein kinase MARK1 (Homo sapiens) (Q9P0L2 whole entry, looked up): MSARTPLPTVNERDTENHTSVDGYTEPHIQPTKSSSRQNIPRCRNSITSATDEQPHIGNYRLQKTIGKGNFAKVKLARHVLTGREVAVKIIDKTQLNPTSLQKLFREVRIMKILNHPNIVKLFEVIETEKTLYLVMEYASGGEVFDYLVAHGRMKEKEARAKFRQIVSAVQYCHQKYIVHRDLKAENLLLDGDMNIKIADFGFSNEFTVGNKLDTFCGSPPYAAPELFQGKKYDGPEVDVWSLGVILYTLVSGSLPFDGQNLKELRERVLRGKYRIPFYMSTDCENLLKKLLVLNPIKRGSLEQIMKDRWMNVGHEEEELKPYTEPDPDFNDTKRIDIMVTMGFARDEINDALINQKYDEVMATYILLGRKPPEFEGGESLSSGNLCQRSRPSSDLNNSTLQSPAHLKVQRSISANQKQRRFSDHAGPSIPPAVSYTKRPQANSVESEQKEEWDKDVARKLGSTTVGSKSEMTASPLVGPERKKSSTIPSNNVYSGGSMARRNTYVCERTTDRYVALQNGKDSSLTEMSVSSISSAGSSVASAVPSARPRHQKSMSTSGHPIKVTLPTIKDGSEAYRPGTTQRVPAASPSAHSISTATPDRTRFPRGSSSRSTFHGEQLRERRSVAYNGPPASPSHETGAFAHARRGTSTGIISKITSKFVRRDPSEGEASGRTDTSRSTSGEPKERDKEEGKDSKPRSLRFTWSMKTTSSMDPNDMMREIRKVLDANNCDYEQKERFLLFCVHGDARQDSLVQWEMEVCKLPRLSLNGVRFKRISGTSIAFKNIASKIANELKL
# [29] = molecular target: SRSF protein kinase 3 (Homo sapiens) (UniProt Q9UPE1); assay: Inhibition of human MSSK1 assessed as enzyme activity at 1 uM relative to control; set-up: scale not given: the % may be the effect or the level left
# [30] = molecular target: Proto-oncogene tyrosine-protein kinase Src (Homo sapiens) (UniProt P12931); assay: Inhibition of human Src assessed as enzyme activity at 1 uM relative to control; set-up: scale not given: the % may be the effect or the level left
# [31] = molecular target: Serine/threonine-protein kinase 10 (Homo sapiens) (UniProt O94804); assay: Inhibition of human LOK assessed as enzyme activity at 1 uM relative to control; set-up: scale not given: the % may be the effect or the level left
# [32] = molecular target: MAP kinase-interacting serine/threonine-protein kinase 2 (Homo sapiens) (UniProt Q9HBH9); assay: Inhibition of human MKNK2 assessed as enzyme activity at 1 uM relative to control; set-up: scale not given: the % may be the effect or the level left
# Sequence of MAP kinase-interacting serine/threonine-protein kinase 2 (Homo sapiens) (Q9HBH9 whole entry, looked up): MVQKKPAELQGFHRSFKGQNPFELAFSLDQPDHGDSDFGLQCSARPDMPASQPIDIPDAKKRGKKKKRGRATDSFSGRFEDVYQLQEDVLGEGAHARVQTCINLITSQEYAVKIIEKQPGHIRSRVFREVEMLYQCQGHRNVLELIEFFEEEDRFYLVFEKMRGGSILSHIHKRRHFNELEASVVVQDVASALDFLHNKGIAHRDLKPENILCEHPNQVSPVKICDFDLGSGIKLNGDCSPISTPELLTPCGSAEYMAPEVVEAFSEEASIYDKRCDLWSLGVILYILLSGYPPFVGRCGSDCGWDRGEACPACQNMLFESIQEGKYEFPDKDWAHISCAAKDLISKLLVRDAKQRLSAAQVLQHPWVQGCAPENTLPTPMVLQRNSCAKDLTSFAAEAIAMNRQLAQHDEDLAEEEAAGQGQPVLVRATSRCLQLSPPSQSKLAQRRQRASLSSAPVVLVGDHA
# [33] = Volume of distribution in mouse; assay type: ADME, organism-based; settings: in vivo
# [34] = molecular target: CDK7/Cyclin H/MNAT1 (Homo sapiens) (UniProt P51946+P50613+P51948); assay: Inhibition of human CDK7/cyclinH/MAT1 assessed as enzyme activity at 1 uM relative to control; assay type: protein-complex assay; set-up: scale not given: the % may be the effect or the level left
# [35] = molecular target: Fibroblast growth factor receptor 4 (Homo sapiens) (UniProt P22455); assay: Inhibition of human FGFR4 assessed as enzyme activity at 1 uM relative to control; set-up: scale not given: the % may be the effect or the level left
# [36] = molecular target: Tyrosine-protein kinase HCK (Homo sapiens) (UniProt P08631); assay: Inhibition of human Hck assessed as enzyme activity at 1 uM relative to control; set-up: scale not given: the % may be the effect or the level left
# Sequence of Tyrosine-protein kinase HCK (Homo sapiens) (P08631 2-526 limits assumed): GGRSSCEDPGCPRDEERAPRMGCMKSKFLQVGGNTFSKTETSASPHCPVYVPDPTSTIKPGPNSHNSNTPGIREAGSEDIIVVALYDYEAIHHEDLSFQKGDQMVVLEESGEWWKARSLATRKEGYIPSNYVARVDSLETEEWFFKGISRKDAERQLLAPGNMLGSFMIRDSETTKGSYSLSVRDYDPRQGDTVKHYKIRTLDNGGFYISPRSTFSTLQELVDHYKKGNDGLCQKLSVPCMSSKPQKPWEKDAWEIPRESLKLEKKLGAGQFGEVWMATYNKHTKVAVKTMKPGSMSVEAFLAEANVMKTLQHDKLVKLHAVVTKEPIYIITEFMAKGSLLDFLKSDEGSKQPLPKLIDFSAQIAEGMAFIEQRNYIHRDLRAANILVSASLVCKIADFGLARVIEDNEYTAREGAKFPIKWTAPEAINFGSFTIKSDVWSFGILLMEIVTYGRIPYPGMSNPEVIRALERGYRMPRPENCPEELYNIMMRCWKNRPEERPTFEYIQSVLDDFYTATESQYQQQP
# [37] = molecular target: Interleukin-1 receptor-associated kinase 4 (Homo sapiens) (UniProt Q9NWZ3); assay: Inhibition of human IRAK4 assessed as enzyme activity at 1 uM relative to control; set-up: scale not given: the % may be the effect or the level left
# [38] = molecular target: Fibroblast growth factor receptor 3 (Homo sapiens) (UniProt P22607); assay: Inhibition of human FGFR3 assessed as enzyme activity at 1 uM relative to control; set-up: scale not given: the % may be the effect or the level left
# Sequence of Myotonin-protein kinase (Homo sapiens) (Q09013 whole entry): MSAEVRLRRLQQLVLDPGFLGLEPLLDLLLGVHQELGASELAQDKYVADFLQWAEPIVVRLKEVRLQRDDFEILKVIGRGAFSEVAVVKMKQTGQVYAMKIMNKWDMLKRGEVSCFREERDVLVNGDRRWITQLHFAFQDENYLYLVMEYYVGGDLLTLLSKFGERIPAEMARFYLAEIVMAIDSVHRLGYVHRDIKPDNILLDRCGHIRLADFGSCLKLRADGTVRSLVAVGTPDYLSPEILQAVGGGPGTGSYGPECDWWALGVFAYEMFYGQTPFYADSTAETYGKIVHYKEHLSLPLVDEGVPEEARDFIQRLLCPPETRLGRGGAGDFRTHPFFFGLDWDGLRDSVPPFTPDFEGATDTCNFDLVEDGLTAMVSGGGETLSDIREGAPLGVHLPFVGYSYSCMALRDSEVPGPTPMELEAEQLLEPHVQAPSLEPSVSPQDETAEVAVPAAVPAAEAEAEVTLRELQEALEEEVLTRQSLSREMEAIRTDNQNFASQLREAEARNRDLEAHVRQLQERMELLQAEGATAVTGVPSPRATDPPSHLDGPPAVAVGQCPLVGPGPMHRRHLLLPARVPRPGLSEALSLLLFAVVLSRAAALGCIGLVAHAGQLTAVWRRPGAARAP
smiles,measurement,setting,value
CCCS(=O)(=O)Nc1cccc(Nc2ccc3ncn(C)c(=O)c3c2)c1C#N,Activity,[1],93%
same,Activity,[2],103%
same,Activity,[3],145%
same,Activity,[4],99%
same,Activity,[5],102%
same,Activity,[6],103%
same,Activity,[7],105%
same,Activity,TAK1/TAB1 (Homo sapiens),95.5%
same,Activity,[8],96%
same,Activity,[9],127%
same,Activity,[10],110%
same,Activity,[11],104%
same,Activity,[12],89.5%
same,inhibition,[13],< 60%
same,Activity,[14],105%
same,Activity,[15],102%
same,Activity,[16],104%
same,Activity,[17],1.5%
same,Activity,[18],119%
same,Activity,[19],109%
same,Activity,[20],101%
same,Activity,[21],104%
same,Activity,[22],118%
same,Activity,[23],121%
same,Activity,[24],91.5%
same,Activity,[25],104%
same,Activity,[26],108%
same,Activity,[27],111%
same,Activity,[28],117%
same,Activity,[29],115%
same,Activity,[30],83.5%
same,Activity,[31],40.5%
same,Activity,[32],106%
same,Vd,[33],0.25 L/kg
same,Activity,[34],104%
same,Activity,[35],134%
same,Activity,[36],94.5%
same,Activity,[37],106%
same,Activity,[38],112%
